The source of these data is patent publication US20250019386A1, “PYRROLO[1,2-b]-2-PYRIDAZINONE COMPOUNDS AS 5-HT4 RECEPTOR AGONISTS” (SUVEN LIFE SCIENCES LIMITED, priority 2022, published 2025).

pEC50: −log10 of the molar value.

One assay relates to gastric emptying. As to the kind of experiment: Effect on gastric emptying in Beagle dogs (clonidine model of gastroparesis). In kind it is in vivo. Particulars: 3 and 10 mg/kg oral. The method, then:
Six beagle dogs were used for the study in a crossover manner such that all 6 dogs received all the treatments. Each dog was placed in an individual cage after overnight fasting and water removed. To provide a model of gastroparesis, clonidine (α2 adrenergic agonist) at a dose of 10 μg/kg was injected subcutaneously 30 min before test meal administration.
Dogs were orally administered test compound of example 2 at 1, 3 and 10 mg/kg or vehicle or cisapride at 10 mg/kg immediately before the administration of clonidine. The test meal (10 mL/kg), made up of commercially available semi-solid food with 10 mg/kg of acetaminophen (APAP), was provided 30 min after clonidine injection. Blood samples were collected from cephalic vein at 0, 0.25, 0.5, 0.75, 1.0, 1.25, 1.5 & 2.0 h after test meal administration and then plasma was separated by centrifugation. Plasma concentrations of APAP were determined by in-house methods using LC-MS/MS.

Assay [1] has as its system intestinal (jejunum) EMG activity. As to the kind of experiment: Intestinal myoelectrical activity in male Wistar rats. In kind it is in vivo. The note with it: p.o. The method, then:
Method: The telemetry transmitter (F40-EET; DSI, MA, USA) was implanted subcutaneously in the rat and the spring electrodes were implanted into the walls of intestine (jejunum) under isoflurane anesthesia. After two weeks of surgical recovery, animals were fasted for 14 h and transferred to recording cages. The transmitter was switched on using magnetic switch and baseline intestinal EMG activity was recorded for 3 h. Rats were treated with vehicle, test compound of example 2 (10 or 30 mg/kg, p.o.) or positive control, prucalopride (10 mg/kg, p.o.) was administered and EMG signals were recorded for additional 3 h using Ponemah software (DSI, MA, USA). Animals were given access to only water during study. The recorded EMG signal was filtered using 20-50 Hz band filter and spiking activity was measured in bouts of 30 min using NeuroScore software (DSI, MA, USA).

The next assay deals with 5-HT4 receptors (Homo sapiens (Human), UniProt Q13639). Put plainly: Determination of EC50 values for 5-HT4 receptor (pCRE-Luc reporter assay). In kind it is cell-based. The note with it: CHO cells expressing recombinant human 5-HT4 receptor and pCRE-Luc reporter; 4 h incubation; luciferase activity. The method, then: A stable CHO cell line expressing recombinant human 5-HT4 receptor and pCRE-Luc reporter system was used for cell-based assay. The assay offers a non-radioactive based approach to determine binding of a compound to GPCRs. In this specific assay, the level of intracellular cyclic AMP, which is modulated by activation, or inhibition of the receptor is measured. The recombinant cells harbor luciferase reporter gene under the control of cAMP response element.
Chain of 5-HT4 receptors (Q13639 whole entry): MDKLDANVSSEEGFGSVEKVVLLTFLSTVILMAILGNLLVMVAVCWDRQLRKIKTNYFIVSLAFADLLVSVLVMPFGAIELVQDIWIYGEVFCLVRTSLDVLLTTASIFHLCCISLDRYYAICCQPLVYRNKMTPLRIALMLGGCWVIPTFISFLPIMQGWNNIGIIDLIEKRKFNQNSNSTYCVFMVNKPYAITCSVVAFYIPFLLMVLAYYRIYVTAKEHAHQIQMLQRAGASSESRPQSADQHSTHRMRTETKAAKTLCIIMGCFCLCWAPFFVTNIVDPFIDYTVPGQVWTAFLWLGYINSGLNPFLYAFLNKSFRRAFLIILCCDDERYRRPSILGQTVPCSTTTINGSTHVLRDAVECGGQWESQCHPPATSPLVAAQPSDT
The above cells were grown in 96 well clear bottom white plates in Ham's F12 medium containing 10% fetal bovine serum. Prior to the addition of compounds or standard agonist, cells were serum starved overnight. Increasing concentrations of test compounds were added to the cells in OptiMEM medium. The incubation was continued in CO2 incubator at 37° C. with 5% CO2 conditions for 4 h. Medium was removed and cells were washed with phosphate buffered saline. The cells were lysed and luciferase activity was measured in a Luminometer. Concentration-response data was generated using the luciferase assay, following incubation of cells with receptor ligands, were analyzed by subtracting basal levels (i.e. with medium alone), then normalizing values as a percentage of controls (endogenous agonist serotonin (10 μM)). […] EC50 values of the compounds were defined as the concentration required in stimulating the luciferase activity by 50%.

Take `CC(C)n1c(=O)c(C(=O)NC2CC3CCC(C2)N3C[C@@H](O)CN(C)S(C)(=O)=O)cc2cccn21.O=C(O)C(O)C(O)C(=O)O` (single isomer, unassigned) [Example 2]: the gastric emptying entry with gastric emptying (clonidine-treated (10 μg/kg s.c.) beagle dogs, plasma APAP) was “enhanced the gastric emptying in dose dependent manner”. Besides, the gastric motor activity entry in the assay on gastric emptying (clonidine-treated beagle dogs) is on record as “increased gastric motor activity”. Besides, in assay [1] (30 mg/kg, jejunum EMG spiking), the “increase in myoelectric activity” value was 97±31%. Further, the myoelectric activity entry in assay [1] (10 or 30 mg/kg) is on record as “dose-dependent increase in myoelectric activity”. For the same compound, the pEC50 at 5-HT4 receptors was 8.39.

By pEC50 is commonly meant −log10 of the EC50, conventionally taken in molar units.
